Measurements taken from ChEMBL document CHEMBL1201862, “PubChem BioAssay data set” (2004).
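Five compound concentrations were applied to cells in 96-well plates for 48 hours; endpoints were derived by simple linear interpolation of the resulting dose-response curve. Here, GI50 denotes the concentration required for 50% inhibition of growth.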 The source made the active and inactive calls. Cut-off read from the data, not from the text of the source: active = GI50 up to about 1.1 µM and inactive = higher.

Key:
Assay in all cases: inhibition of tumour cell growth, NCI panel, 48 h
[1] = test system: UACC-257
[2] = test system: HL-60
[3] = test system: SR
[4] = test system: HCT-15
[5] = test system: OVCAR-3
[6] = test system: UO-31
[7] = test system: SW-620
[8] = test system: MOLT-4
[9] = test system: A498
[10] = test system: K562
[11] = test system: OVCAR-5
[12] = test system: LOX IMVI
[13] = test system: CAKI-1
[14] = test system: CCRF-CEM
[15] = test system: NCI-H226
[16] = test system: Malme-3M
[17] = test system: IGROV-1
[18] = test system: SNB-75
[19] = test system: MDA-MB-231

Row | SMILES | GI50 [1] | GI50 [2] | GI50 [3] | GI50 [4] [µM] | GI50 [5] | GI50 [6] | GI50 [7] | GI50 [8] | GI50 [9] | GI50 [10] | GI50 [11] | GI50 [12] | GI50 [13] | GI50 [14] | GI50 [15] | GI50 [16] | GI50 [17] | GI50 [18] | GI50 [19]
1 | Nc1nnc2c(-c3ccccc3)n[nH]c2n1 | 50.7 µM (inactive) | 9.4 µM (inactive) | 27.4 µM (inactive) | 52.1 | > 100 µM (inactive) | 28.2 µM (inactive) | 54.7 µM (inactive) | 21.7 µM (inactive) | 12.9 µM (inactive) | 39.9 µM (inactive) | > 100 µM (inactive) | 50.6 µM (inactive) | 17 µM (inactive) | 18.5 µM (inactive) | 46 µM (inactive) | – | – | – | –
2 | CSc1nnc2n1-c1ccccc1SCC2 | > 100 µM (inactive) | > 100 µM (inactive) | > 100 µM (inactive) | > 100 | > 100 µM (inactive) | > 100 µM (inactive) | > 100 µM (inactive) | > 100 µM (inactive) | > 100 µM (inactive) | > 100 µM (inactive) | – | > 100 µM (inactive) | – | > 100 µM (inactive) | > 100 µM (inactive) | > 100 µM (inactive) | > 100 µM (inactive) | > 100 µM (inactive) | –
3 | CCCCCC(=O)Cc1cc(OC)cc2c1C(=O)Oc1cc(O)c(C(=O)O)c(CC(=O)CCCCC)c1O2 | 71.4 µM (inactive) | 38.9 µM (inactive) | 52.6 µM (inactive) | – | 24 µM (inactive) | – | > 100 µM (inactive) | 27.2 µM (inactive) | 39 µM (inactive) | 30.6 µM (inactive) | > 100 µM (inactive) | 77.8 µM (inactive) | > 100 µM (inactive) | 40.7 µM (inactive) | > 100 µM (inactive) | 51.4 µM (inactive) | 39.4 µM (inactive) | 55.7 µM (inactive) | –
4 | NCCCC1NC(=O)/C(=C(O)/C=C/C2CCC[C@@H]2CC2SCCS2)C1=O (stereo not given in full) | 76.9 µM (inactive) | 23.3 µM (inactive) | 58.5 µM (inactive) | – | > 100 µM (inactive) | > 100 µM (inactive) | 57 µM (inactive) | 43.4 µM (inactive) | > 100 µM (inactive) | 31.2 µM (inactive) | > 100 µM (inactive) | > 100 µM (inactive) | – | 54.1 µM (inactive) | 71.8 µM (inactive) | > 100 µM (inactive) | > 100 µM (inactive) | > 100 µM (inactive) | –
5 | COC1/C(=C\C(=O)OC(C)(C)C)c2ccccc2N1C(C)=O (stereo not given) | > 100 µM (inactive) | 36.2 µM (inactive) | 48 µM (inactive) | > 100 | > 100 µM (inactive) | > 100 µM (inactive) | > 100 µM (inactive) | 81.7 µM (inactive) | > 100 µM (inactive) | > 100 µM (inactive) | – | – | > 100 µM (inactive) | > 100 µM (inactive) | – | – | > 100 µM (inactive) | > 100 µM (inactive) | –
6 | O=C(O)Cn1c(=O)[nH]c(=O)c2c1ncn2Cc1ccccc1 | – | – | > 100 µM (inactive) | > 100 | > 100 µM (inactive) | > 100 µM (inactive) | > 100 µM (inactive) | > 100 µM (inactive) | > 100 µM (inactive) | > 100 µM (inactive) | > 100 µM (inactive) | – | > 100 µM (inactive) | > 100 µM (inactive) | > 100 µM (inactive) | > 100 µM (inactive) | – | > 100 µM (inactive) | –
7 | Cc1cc(N(CCC#N)CCC#N)ccc1/C=C1\N=C(c2cc([N+](=O)[O-])ccc2Cl)N(c2cccc(Cl)c2)C1=O | > 100 µM (inactive) | > 100 µM (inactive) | 94.4 µM (inactive) | > 100 | > 100 µM (inactive) | > 100 µM (inactive) | < 0.01 µM (active) | 79.6 µM (inactive) | > 100 µM (inactive) | 96.6 µM (inactive) | > 100 µM (inactive) | – | 3.08 µM (inactive) | 71.6 µM (inactive) | > 100 µM (inactive) | > 100 µM (inactive) | > 100 µM (inactive) | > 100 µM (inactive) | –
8 | O=P1(O)c2ccccc2CCc2ccccc21 | > 100 µM (inactive) | – | – | > 100 | > 100 µM (inactive) | > 100 µM (inactive) | > 100 µM (inactive) | > 100 µM (inactive) | – | > 100 µM (inactive) | – | > 100 µM (inactive) | > 100 µM (inactive) | > 100 µM (inactive) | > 100 µM (inactive) | – | > 100 µM (inactive) | > 100 µM (inactive) | > 100 µM (inactive)
9 | Cc1ccc(O)c(-c2cscn2)c1 | 73.1 µM (inactive) | 1.81 µM (inactive) | 40.4 µM (inactive) | 31.6 | 35.2 µM (inactive) | 22.8 µM (inactive) | 51.5 µM (inactive) | 35.1 µM (inactive) | 15.3 µM (inactive) | 52 µM (inactive) | 11.2 µM (inactive) | 27.7 µM (inactive) | 39.3 µM (inactive) | 0.37 µM (active) | – | > 100 µM (inactive) | 55.7 µM (inactive) | – | –
10 | CC1(C)OC2C(O1)[C@H]1OC(C(Cl)(Cl)Cl)=N[C@H]1C(I)[C@H]2N1C(=O)c2ccccc2C1=O (stereo not given in full) | 36.1 µM (inactive) | 17.9 µM (inactive) | 23.1 µM (inactive) | 55.1 | – | – | > 100 µM (inactive) | 26.1 µM (inactive) | > 100 µM (inactive) | 36.7 µM (inactive) | > 100 µM (inactive) | 51.2 µM (inactive) | – | 41.4 µM (inactive) | > 100 µM (inactive) | – | 25.5 µM (inactive) | 56.9 µM (inactive) | –
11 | COc1cc2cc[n+]3c4cc(OC)c(OC)cc4c(C)cc3c2cc1OC | 88.7 µM (inactive) | > 100 µM (inactive) | > 100 µM (inactive) | > 100 | > 100 µM (inactive) | > 100 µM (inactive) | > 100 µM (inactive) | > 100 µM (inactive) | – | > 100 µM (inactive) | > 100 µM (inactive) | > 100 µM (inactive) | > 100 µM (inactive) | > 100 µM (inactive) | > 100 µM (inactive) | > 100 µM (inactive) | > 100 µM (inactive) | 44.7 µM (inactive) | –
12 | COc1cc(Nc2cnc3ccc(C(F)(F)F)cc3n2)cc(OC)c1OC | 9.84 µM (inactive) | 9.71 µM (inactive) | > 100 µM (inactive) | 3.95 | > 100 µM (inactive) | 67.1 µM (inactive) | 71.8 µM (inactive) | 39.7 µM (inactive) | – | – | > 100 µM (inactive) | 4.02 µM (inactive) | – | 24.7 µM (inactive) | > 100 µM (inactive) | > 100 µM (inactive) | – | – | –
13 | C1=Cc2nc1c(-c1ccccc1)c1nc(c(-c3ccccc3)c3ccc([nH]3)c(-c3ccccc3)c3ccc([nH]3)c2-c2ccccc2)C=C1 [TETRAPHENYLPORPHYRIN] | > 100 µM (inactive) | > 100 µM (inactive) | > 100 µM (inactive) | > 100 | > 100 µM (inactive) | > 100 µM (inactive) | > 100 µM (inactive) | > 100 µM (inactive) | > 100 µM (inactive) | > 100 µM (inactive) | > 100 µM (inactive) | > 100 µM (inactive) | > 100 µM (inactive) | > 100 µM (inactive) | > 100 µM (inactive) | > 100 µM (inactive) | > 100 µM (inactive) | > 100 µM (inactive) | –
14 | COC(=O)/C(=C/c1ccc(OC)cc1)NC(=O)c1ccccc1 | > 100 µM (inactive) | – | > 100 µM (inactive) | > 100 | – | > 100 µM (inactive) | > 100 µM (inactive) | – | > 100 µM (inactive) | > 100 µM (inactive) | > 100 µM (inactive) | > 100 µM (inactive) | > 100 µM (inactive) | 2 µM (inactive) | > 100 µM (inactive) | > 100 µM (inactive) | > 100 µM (inactive) | > 100 µM (inactive) | –
15 | COc1nc(/C=N/NC(N)=S)nc(OC)n1 | > 100 µM (inactive) | 45.8 µM (inactive) | 68.7 µM (inactive) | – | > 100 µM (inactive) | 56.1 µM (inactive) | > 100 µM (inactive) | 56.8 µM (inactive) | 33.7 µM (inactive) | > 100 µM (inactive) | > 100 µM (inactive) | – | 78.5 µM (inactive) | – | 69.7 µM (inactive) | 72.1 µM (inactive) | > 100 µM (inactive) | 32.7 µM (inactive) | –
16 | Nc1ncnc2c1ncn2C1CC(OCc2ccccc2[N+](=O)[O-])C(CO)O1 (stereo not given) | 18.5 µM (inactive) | 12.7 µM (inactive) | 10.8 µM (inactive) | 21.8 | 30.1 µM (inactive) | 17 µM (inactive) | 36 µM (inactive) | 18.4 µM (inactive) | > 50 µM (inactive) | 16.1 µM (inactive) | > 50 µM (inactive) | 20.9 µM (inactive) | – | 16.7 µM (inactive) | 11.8 µM (inactive) | 20 µM (inactive) | 28.9 µM (inactive) | – | –
17 | COc1ccc(/C=c2/sc3n(c2=O)NC(c2ccc(Cl)cc2)NN=3)cc1 (stereo not given) | – | – | > 100 µM (inactive) | – | > 100 µM (inactive) | > 100 µM (inactive) | > 100 µM (inactive) | > 100 µM (inactive) | – | > 100 µM (inactive) | > 100 µM (inactive) | > 100 µM (inactive) | > 100 µM (inactive) | > 100 µM (inactive) | > 100 µM (inactive) | > 100 µM (inactive) | > 100 µM (inactive) | 23.1 µM (inactive) | –
18 | O=c1cc(-c2ccccc2)oc2cc(OCCSCCCCCCCCCCSCCOc3ccc4c(=O)cc(-c5ccccc5)oc4c3)ccc12 | > 100 µM (inactive) | > 100 µM (inactive) | > 100 µM (inactive) | > 100 | > 100 µM (inactive) | > 100 µM (inactive) | > 100 µM (inactive) | > 100 µM (inactive) | – | > 100 µM (inactive) | – | > 100 µM (inactive) | > 100 µM (inactive) | > 100 µM (inactive) | – | > 100 µM (inactive) | > 100 µM (inactive) | > 100 µM (inactive) | –
